From article PMC2680423 (Cell calcium, 2009)
Where two headings read alike, the source gives them in different places.

Assays:
Drosophila TRPL channel [1] = target: T1, Drosophila TRPL channel (Drosophila melanogaster, UniProt P48994); experiment: Whole cell patch clamp of TRPL channels expressed in S2 cells; format: cell-based; details: for TRPL Activation/Inhibition: Table 1, TRPL expressed in S2 cells; for Reversibility of effect on TRPL channel: washout, S2 cells
T1 sequence (P48994 1-1124): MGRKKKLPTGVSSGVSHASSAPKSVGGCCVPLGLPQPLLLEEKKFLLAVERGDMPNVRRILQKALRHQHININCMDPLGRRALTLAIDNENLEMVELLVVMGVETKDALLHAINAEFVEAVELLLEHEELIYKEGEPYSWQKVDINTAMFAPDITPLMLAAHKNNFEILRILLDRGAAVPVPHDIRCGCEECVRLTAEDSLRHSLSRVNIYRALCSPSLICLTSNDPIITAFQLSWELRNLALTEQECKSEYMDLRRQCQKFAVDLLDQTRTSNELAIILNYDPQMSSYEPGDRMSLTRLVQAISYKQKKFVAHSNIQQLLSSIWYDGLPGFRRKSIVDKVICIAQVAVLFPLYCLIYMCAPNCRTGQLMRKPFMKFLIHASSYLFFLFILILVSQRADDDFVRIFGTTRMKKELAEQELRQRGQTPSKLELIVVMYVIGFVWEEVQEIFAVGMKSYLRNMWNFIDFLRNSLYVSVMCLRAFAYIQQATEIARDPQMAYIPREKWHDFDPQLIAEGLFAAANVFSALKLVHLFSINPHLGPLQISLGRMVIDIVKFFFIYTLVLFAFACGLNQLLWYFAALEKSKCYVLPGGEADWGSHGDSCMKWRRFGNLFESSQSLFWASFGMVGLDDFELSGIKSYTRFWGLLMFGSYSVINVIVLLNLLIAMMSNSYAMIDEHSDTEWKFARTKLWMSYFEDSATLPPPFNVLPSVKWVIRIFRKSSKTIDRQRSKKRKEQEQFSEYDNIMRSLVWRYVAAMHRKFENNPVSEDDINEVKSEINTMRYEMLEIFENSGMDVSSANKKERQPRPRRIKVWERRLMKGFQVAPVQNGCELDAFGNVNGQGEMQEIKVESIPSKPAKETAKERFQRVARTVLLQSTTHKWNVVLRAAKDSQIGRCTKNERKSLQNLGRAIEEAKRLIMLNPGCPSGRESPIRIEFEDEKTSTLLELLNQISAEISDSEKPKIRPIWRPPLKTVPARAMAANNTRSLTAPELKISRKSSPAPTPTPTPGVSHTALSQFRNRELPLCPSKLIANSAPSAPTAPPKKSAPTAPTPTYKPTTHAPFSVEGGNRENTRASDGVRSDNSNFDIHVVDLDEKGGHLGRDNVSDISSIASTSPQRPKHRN

Drosophila TRPL channel [2] = target: T1, Drosophila TRPL channel; details: Table 1; no own experiment shown; cited from earlier work
[3] = system: S2 cells (TRPL not expressed); format: cell-based, Drosophila; details: control S2 cells
[4] = system: mock transfected HEK293 cells; experiment: Control: mock transfected HEK293 cells, whole cell patch clamp; format: cell-based, Human; details: TRPM7 not expressed
[5] = target: TRPM7-GFP expressed in hippocampal neurons (Mus musculus, UniProt Q923J1); experiment: Synaptic vesicle release; format: cell-based; details: 500μM
Chain of TRPM7-GFP expressed in hippocampal neurons (Q923J1 whole entry): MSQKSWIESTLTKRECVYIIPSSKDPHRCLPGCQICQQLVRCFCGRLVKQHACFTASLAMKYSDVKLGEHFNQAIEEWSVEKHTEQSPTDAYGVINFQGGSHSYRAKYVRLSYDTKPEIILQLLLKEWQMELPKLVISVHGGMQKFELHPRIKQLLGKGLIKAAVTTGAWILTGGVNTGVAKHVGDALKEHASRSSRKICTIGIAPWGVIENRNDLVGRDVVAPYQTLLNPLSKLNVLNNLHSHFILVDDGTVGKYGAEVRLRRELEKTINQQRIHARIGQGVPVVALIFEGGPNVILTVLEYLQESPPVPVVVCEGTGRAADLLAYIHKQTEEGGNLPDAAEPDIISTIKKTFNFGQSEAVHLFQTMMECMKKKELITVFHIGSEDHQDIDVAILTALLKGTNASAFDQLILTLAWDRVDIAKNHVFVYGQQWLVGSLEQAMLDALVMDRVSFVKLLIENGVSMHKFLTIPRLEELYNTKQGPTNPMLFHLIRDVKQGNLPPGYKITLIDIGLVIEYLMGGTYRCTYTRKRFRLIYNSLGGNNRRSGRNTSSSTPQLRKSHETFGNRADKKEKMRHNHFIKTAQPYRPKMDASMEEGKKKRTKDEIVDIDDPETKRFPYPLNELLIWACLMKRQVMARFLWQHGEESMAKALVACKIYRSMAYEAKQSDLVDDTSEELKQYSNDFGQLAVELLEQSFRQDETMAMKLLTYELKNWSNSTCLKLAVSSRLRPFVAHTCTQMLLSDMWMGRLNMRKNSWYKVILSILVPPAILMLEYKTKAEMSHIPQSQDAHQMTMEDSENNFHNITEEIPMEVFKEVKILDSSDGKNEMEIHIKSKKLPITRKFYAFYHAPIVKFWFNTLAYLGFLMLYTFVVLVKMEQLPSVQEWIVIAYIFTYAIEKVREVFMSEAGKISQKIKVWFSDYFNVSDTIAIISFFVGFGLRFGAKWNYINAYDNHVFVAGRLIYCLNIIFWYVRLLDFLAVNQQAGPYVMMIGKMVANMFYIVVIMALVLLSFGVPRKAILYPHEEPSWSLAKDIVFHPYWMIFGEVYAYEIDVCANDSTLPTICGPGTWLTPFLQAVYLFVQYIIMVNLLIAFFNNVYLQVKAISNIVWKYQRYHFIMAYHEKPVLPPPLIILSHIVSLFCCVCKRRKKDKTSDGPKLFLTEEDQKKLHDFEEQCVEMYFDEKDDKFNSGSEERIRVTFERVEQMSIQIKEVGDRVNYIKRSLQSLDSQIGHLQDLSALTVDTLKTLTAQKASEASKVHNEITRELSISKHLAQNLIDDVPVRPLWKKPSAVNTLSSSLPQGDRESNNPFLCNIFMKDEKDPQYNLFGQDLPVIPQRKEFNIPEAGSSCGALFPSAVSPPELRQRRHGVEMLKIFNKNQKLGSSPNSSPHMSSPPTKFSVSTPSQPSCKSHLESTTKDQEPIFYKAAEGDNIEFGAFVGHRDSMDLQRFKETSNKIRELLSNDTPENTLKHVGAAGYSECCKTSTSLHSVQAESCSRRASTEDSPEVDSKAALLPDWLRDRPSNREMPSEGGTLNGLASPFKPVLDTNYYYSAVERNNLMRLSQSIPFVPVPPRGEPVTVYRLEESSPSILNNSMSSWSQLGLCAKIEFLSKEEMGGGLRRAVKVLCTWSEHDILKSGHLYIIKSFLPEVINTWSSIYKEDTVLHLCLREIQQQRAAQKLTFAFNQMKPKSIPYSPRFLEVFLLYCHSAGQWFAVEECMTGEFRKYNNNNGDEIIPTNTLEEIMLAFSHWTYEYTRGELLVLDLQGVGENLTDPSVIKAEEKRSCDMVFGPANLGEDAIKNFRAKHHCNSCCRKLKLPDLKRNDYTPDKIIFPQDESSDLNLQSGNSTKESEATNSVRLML

TRPM8 = details: cited from earlier work
mammalian TRPM7 = mammalian TRPM7 (Mus musculus, UniProt Q923J1); experiment: Whole cell patch clamp of TRPM7 expressed in HEK293 cells; format: cell-based
Chain of mammalian TRPM7 (Q923J1 whole entry): as above

native TRP channel = target: T2, native TRP channel (Drosophila melanogaster, UniProt P19334); experiment: Light induced current; details: WT photoreceptors, 6 min in the dark after application
T2 sequence (P19334 1-1275): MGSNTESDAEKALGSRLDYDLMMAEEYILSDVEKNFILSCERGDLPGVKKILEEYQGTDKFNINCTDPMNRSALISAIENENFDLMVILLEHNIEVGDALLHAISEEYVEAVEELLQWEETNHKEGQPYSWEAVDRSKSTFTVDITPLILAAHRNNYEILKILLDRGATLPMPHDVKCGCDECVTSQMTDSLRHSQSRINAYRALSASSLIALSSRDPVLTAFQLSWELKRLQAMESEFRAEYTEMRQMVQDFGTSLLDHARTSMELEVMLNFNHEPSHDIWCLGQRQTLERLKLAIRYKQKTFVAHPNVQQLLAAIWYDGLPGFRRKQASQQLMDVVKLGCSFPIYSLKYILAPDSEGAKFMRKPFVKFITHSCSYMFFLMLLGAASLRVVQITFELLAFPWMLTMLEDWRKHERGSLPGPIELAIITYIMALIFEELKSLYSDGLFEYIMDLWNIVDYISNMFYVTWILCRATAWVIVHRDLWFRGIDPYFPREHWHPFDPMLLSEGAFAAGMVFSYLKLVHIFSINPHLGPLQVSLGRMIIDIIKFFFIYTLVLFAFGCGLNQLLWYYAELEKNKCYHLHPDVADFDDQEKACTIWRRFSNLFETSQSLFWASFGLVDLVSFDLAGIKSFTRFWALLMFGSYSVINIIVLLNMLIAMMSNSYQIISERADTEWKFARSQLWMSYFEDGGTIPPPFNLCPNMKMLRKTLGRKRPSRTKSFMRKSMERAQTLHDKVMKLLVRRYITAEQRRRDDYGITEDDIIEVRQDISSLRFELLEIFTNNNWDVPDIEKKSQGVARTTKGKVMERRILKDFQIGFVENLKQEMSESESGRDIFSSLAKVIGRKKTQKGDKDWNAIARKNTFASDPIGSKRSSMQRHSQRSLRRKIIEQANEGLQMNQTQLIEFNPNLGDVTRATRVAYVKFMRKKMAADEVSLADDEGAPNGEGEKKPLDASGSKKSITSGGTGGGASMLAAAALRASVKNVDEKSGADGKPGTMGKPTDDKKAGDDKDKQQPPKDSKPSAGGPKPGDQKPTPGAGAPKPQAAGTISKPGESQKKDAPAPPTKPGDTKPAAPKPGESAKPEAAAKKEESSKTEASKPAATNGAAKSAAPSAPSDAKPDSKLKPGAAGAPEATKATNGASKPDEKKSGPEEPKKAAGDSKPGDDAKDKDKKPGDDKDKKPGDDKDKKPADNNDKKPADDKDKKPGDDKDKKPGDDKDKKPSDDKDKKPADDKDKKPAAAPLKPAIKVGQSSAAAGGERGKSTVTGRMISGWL

native TRPL channel = target: T3, native TRPL channel (Drosophila melanogaster, UniProt P48994); experiment: Light induced current
T3 sequence (P48994 1-1124): T1 sequence (P48994 1-1124)

[6] = system: control hippocampal neurons; experiment: Synaptic vesicle release; format: cell-based; details: 500μM

C=C(C)C1CC=C(C)C(O)C1 (mixture of isomers) [Carveol]
IC50 (Drosophila TRPL channel [1]): 4.22 ± 0.4 mM | Effect on TRPL-mediated current (Drosophila TRPL channel [1]; 5mM (caffeic acid: up to 5mM)): large decrease in the TRPL-dependent current | TRPL Activation/Inhibition (Drosophila TRPL channel [1]): Inhibition

NCCOB(c1ccccc1)c1ccccc1 [2-APB, 2-Aminoethoxydiphenyl borate]
TRPL Activation/Inhibition (Drosophila TRPL channel [2]): Inhibition

CC1(C)C2CCC1(C)C(O)C2 (centres unmarked) [Borneol]
Effect on TRPL-mediated current (Drosophila TRPL channel [1]; 5mM (caffeic acid: up to 5mM)): activated | TRPL Activation/Inhibition (Drosophila TRPL channel [1]): Activation | Reversibility of effect on TRPL channel (Drosophila TRPL channel [1]): completely reversible | Effect on current when TRPL was not expressed [3]: no effect

O=C(O)/C=C/c1ccc(O)c(O)c1 [Caffeic acid]
Effect on TRPL-mediated current (Drosophila TRPL channel [1]; 5mM (caffeic acid: up to 5mM)): did not block | TRPL Activation/Inhibition (Drosophila TRPL channel [1]): No effect

CC12CCC(CC1=O)C2(C)C (centres unmarked) [Camphor]
Effect on TRPL-mediated current (Drosophila TRPL channel [1]; 10mM): activated | TRPL Activation/Inhibition (Drosophila TRPL channel [1]): Activation

Cc1ccc(C(C)C)cc1O [Carvacrol]
Effect on current in mock transfected HEK293 cells [4]: no effect | ΔF median of boutons after application ([5]; before application 73): 75 arbitrary units (a.u) | Number of FM detectable boutons after application ([5]; before application 578): 318 | Effect on TRPL-mediated current (Drosophila TRPL channel [1]; 500μM): Large suppression of the current | TRPL Activation/Inhibition (Drosophila TRPL channel [1]): Inhibition | Reversibility of effect on TRPL channel (Drosophila TRPL channel [1]): reversibly blocked | Effect on TRPM8 (TRPM8): only a minimal effect | Effect on TRPM7 mediated current (mammalian TRPM7; 500μM): dramatic decrease | Reversibility of block of TRPM7 (mammalian TRPM7; HEK293 cells): reversibly blocked | Effect on LIC of WT flies (TRP channel) (native TRP channel): inhibits | Effect on amplitude of the LIC (native TRPL) (native TRPL channel; 500μM, trp^P343 mutant photoreceptor): dramatic reduction | Requirement of light stimulation for inhibition of native TRPL (native TRPL channel; carvacrol applied in the dark, trp^P343): does not require light stimulation | Effect on current when TRPL was not expressed [3]: no effect | Effect on presynaptic activity in control neurons [6]: did not affect | ΔF median of boutons after application ([6]; before application 88): 87 arbitrary units | Number of FM detectable boutons after application ([6]; before application 764): 845

O=C/C=C/c1ccccc1 [Cinnamaldehyde]
Effect on TRPL-mediated current (Drosophila TRPL channel [1]; 2mM): decrease in the TRPL mediated current | TRPL Activation/Inhibition (Drosophila TRPL channel [1]): Inhibition | Reversibility of effect on TRPL channel (Drosophila TRPL channel [1]): reversible

C=CCc1ccc(O)c(OC)c1 [Eugenol]
Effect on TRPL-mediated current (Drosophila TRPL channel [1]; 3mM): large decrease in the TRPL-dependent current | TRPL Activation/Inhibition (Drosophila TRPL channel [1]): Inhibition

CC1CCC(C(C)C)C(O)C1 (centres unmarked) [Menthol]
IC50 (Drosophila TRPL channel [1]): 1.81 ± 0.13 mM | Effect on TRPL-mediated current (Drosophila TRPL channel [1]; 5mM (caffeic acid: up to 5mM)): large decrease in the TRPL-dependent current | TRPL Activation/Inhibition (Drosophila TRPL channel [1]): Inhibition

Cc1ccc(C(C)C)c(O)c1 [Thymol]
Effect on TRPL-mediated current (Drosophila TRPL channel [1]; 1mM): large decrease in the TRPL-dependent current | TRPL Activation/Inhibition (Drosophila TRPL channel [1]): Inhibition
